In patent US20260285857A1, “BICYCLIC AND HETEROCYCLIC AMIDE COMPOUNDS” (priority 2024, published 2026):

System: immunoglobulin light chain protein WIL-FL T46L
Experiment: Differential scanning fluorimetry (thermal shift) assay
Format: binding
Details: Table A; temperature shift [Tm]compound-[Tm]vehicle; recombinant WIL-FL T46L

Structure (SMILES) | DSF
Cc1cc(N2CC[C@](C)(c3ccccc3)C2)cn2nc(C(=O)N[C@H]3COCC[C@@H]3O)nc12 [Compound 157] | ***** (>2.5° C.=*****)
Cc1cc(N2CC[C@](C)(c3ccccc3)C2)cn2nc(C34CC(N)(CO3)C4)nc12 [Compound 5, 1-[8-methyl-6-[(3R)-3-methyl-3-phenyl-pyrrolidin-1-yl]-[1,2,4]triazolo[1,5-a]pyridine-2-yl]-2-oxabicyclo[2.1.1]hexan-4-amine] | ***** (>2.5° C.=*****)
Cc1cc(N2CC[C@](C)(c3ccccc3)C2)cn2nc(C(=O)NC3CCN(c4ccnc(C(=O)O)c4)C3)nc12 (stereo partly shown) [Compound 277] | ***** (>2.5° C.=*****)
Cc1cc(OC[C@H](C)c2ccccc2)cn2nc(C(=O)NC3CCN(c4ccnc(C(=O)O)c4)C3)nc12 (stereo partly shown) [Compound 321] | ***** (>2.5° C.=*****)
Cc1cc(N2CC[C@](C)(c3ccccc3)C2)cn2nc(C(=O)N3CCC4(C3)CN(c3cccc(C(=O)O)n3)CCO4)nc12 (stereo partly shown) [Compound 222] | ***** (>2.5° C.=*****)
Cc1cc(N2CC[C@](C)(c3ccccc3)C2)cn2nc(C34CC(CN)(CO3)C4)nc12 [Compound 58] | ***** (>2.5° C.=*****)
Cc1cc(N2CC[C@](C)(c3ccccc3)C2)cn2nc(C(=O)N3C[C@@H]4C[C@H]3C4C(=O)O)nc12 (stereo partly shown) [Compound 211] | ***** (>2.5° C.=*****)
Cc1cc(N2CC[C@](C)(c3ccccc3)C2)cn2nc(C(=O)N[C@H]3CNC[C@@H]3C(=O)O)nc12 [Compound 134] | ***** (>2.5° C.=*****)
Cc1cc(N2CC[C@](C)(c3ccccc3)C2)cn2nc(C(=O)N3CCC4(CCN(C5CCCC(C(=O)O)C5)C4)C3)nc12 (stereo partly shown) [Compound 289] | ***** (>2.5° C.=*****)
Cc1cc(N2CC[C@](C)(c3ccccc3)C2)cn2nc(C(=O)N[C@H](CO)C(C)C)nc12 [Compound 206] | ***** (>2.5° C.=*****)
C[C@]1(c2ccccc2)CCN(c2cc(O)c3nc(C(=O)N4CC[C@@]5(CCN(c6cccc(C(=O)O)n6)C5)C4)nn3c2)C1 [Compound 293] | **** (>1.5-2.5° C.=****)
Cc1cc(N2CC[C@](C)(c3ccccc3)C2)cn2nc(C(=O)NC3CC(N4C[C@H](O)[C@@H](O)C4)C3)nc12 (stereo partly shown) [Compound 362] | ***** (>2.5° C.=*****)
Cc1cc(N2CC[C@](C)(c3ccccc3)C2)cn2nc(C(=O)NC3CCCN(c4cccc(C(=O)O)n4)C3)nc12 (stereo partly shown) [Compound 219] | ***** (>2.5° C.=*****)
Cc1cc(N2CC[C@](C)(c3ccccc3)C2)cn2nc(C(=O)N3CCn4nc(-c5cccc(C(=O)O)n5)nc4C3)nc12 [Compound 404] | ***** (>2.5° C.=*****)
Cc1cc(N2CC[C@@](C)(c3cccc(F)c3)C2)cn2nc(C(=O)NCC(C)(C)O)nc12 [Compound 382] | ***** (>2.5° C.=*****)
Cc1cc(OC[C@H](C)c2ccccc2)cn2nc(C(=O)NC3COC4(CCOC4)C3)nc12 (stereo partly shown) [Compound 303] | ***** (>2.5° C.=*****)
CO[C@@H]1CNC[C@H]1NC(=O)c1nc2c(C)cc(N3CC[C@](C)(c4ccccc4)C3)cn2n1 [Compound 140] | ***** (>2.5° C.=*****)
CC(O)c1cc(N2CC[C@](C)(c3ccccc3)C2)cn2nc(C(=O)NC3CC4(C3)CC(N3CC5C(C3)C5C(=O)O)C4)nc12 (stereo partly shown) [Compound 341] | ***** (>2.5° C.=*****)
COC(=O)c1cc(N2CCC(NC(=O)c3nc4c(C)cc(N5CC[C@](C)(c6ccccc6)C5)cn4n3)CC2)ccn1 [Compound 263] | ***** (>2.5° C.=*****)
Cc1cc(N2CC[C@](C)(c3ccccc3)C2)cn2nc(C34CC(CO3)C4Cn3cnn(C)c3=O)nc12 (stereo partly shown) [Compound 89] | ***** (>2.5° C.=*****)
COC(=O)[C@]1(C)CCN(C(=O)c2nc3c(C)cc(N4CC[C@](C)(c5ccccc5)C4)cn3n2)C1 [Compound 125] | ***** (>2.5° C.=*****)

Same assay, conditions: Table B; temperature shift [Tm]compound-[Tm]vehicle; recombinant WIL-FL T46L

Structure (SMILES) | DSF
Cc1cc(N2CC[C@](C)(c3ccccc3)C2)cn2nc(C(=O)NC3CC[C@]4(CCN(c5cccc(C(=O)O)n5)C4)C3)nc12 (mixture of isomers) [Compound 633, 6-[rac-(5S)-8-[[8-methyl-6-[rac-(3R)-3-methyl-3-phenyl-pyrrolidin-1-yl]-[1,2,4]triazolo[1,5-a]pyridine-2-carbonyl]amino]-2-azaspiro[4.4]nonan-2-yl]pyridine-2-carboxylic acid] | ***** (>2.5° C.=*****)
CCC(=O)NC12CC(C)(C1)OC2c1nc2c(C)cc(N3CC[C@](C)(c4ccccc4)C3)cn2n1 (stereo partly drawn) [Compound 475, N-[1-methyl-3-[8-methyl-6-[(3R)-3-methyl-3-phenyl-pyrrolidin-1-yl]-[1,2,4]triazolo[1,5-a]pyridin-2-yl]-2-oxabicyclo[2.1.1]hexan-4-yl]propanamide] | ***** (>2.5° C.=*****)
Cc1cc(OC[C@H](C)c2ccccc2)cn2nc(C34CC(CO3)C4Cn3ncnc3C)nc12 (stereo partly drawn) [Compound 486, 8-methyl-2-[5-[(5-methyl-1,2,4-triazol-1-yl)methyl]-2-oxabicyclo[2.1.1]hexan-1-yl]-6-[(2R)-2-phenylpropoxy]-[1,2,4]triazolo[1,5-a]pyridine] | **** (>1.5-2.5° C.=****)
Cc1cc(N2CC[C@](C)(c3ccccc3)C2)cn2nc(C34CC(N5CCC(C(=O)O)CC5=O)(CO3)C4CO)nc12 (stereo partly drawn) [Compound 546, 1-(5-(hydroxymethyl)-1-(8-methyl-6-((R)-3-methyl-3-phenylpyrrolidin-1-yl)-[1,2,4]triazolo[1,5-a]pyridin-2-yl)-2-oxabicyclo[2.1.1]hexan-4-yl)-2-oxopiperidine-4-carboxylic acid] | ***** (>2.5° C.=*****)
Cc1cc(N2CC[C@](C)(c3ccccc3)C2)cn2nc(C34CC(CO3)C4c3nc(NC(=O)N4CC(C(=O)O)C4)n[nH]3)nc12 (stereo partly shown) [Compound 554] | ***** (>2.5° C.=*****)
Cc1cc(N2CC[C@](C)(c3ccccc3)C2)cn2nc(C(=O)NC3C4CC3N(c3cccc(C(=O)O)n3)C4)nc12 (stereo partly drawn) [Compound 697, 6-[5-[[8-methyl-6-[(3R)-3-methyl-3-phenyl-pyrrolidin-1-yl]-[1,2,4]triazolo[1,5-a]pyridine-2-carbonyl]amino]-2-azabicyclo[2.1.1]hexan-2-yl]pyridine-2-carboxylic acid] | ***** (>2.5° C.=*****)
Cc1cc(N2CC[C@](C)(c3ccccc3)C2)cn2nc(C(=O)NC3CCN(c4cccc(S(C)(=N)=O)n4)CC3)nc12 (stereo partly drawn) [Compound 608, 8-methyl-6-[(3R)-3-methyl-3-phenyl-pyrrolidin-1-yl]-N-[1-[6-(methylsulfonimidoyl)-2-pyridyl]-4-piperidyl]-[1,2,4]triazolo[1,5-a]pyridine-2-carboxamide] | ***** (>2.5° C.=*****)
Cc1cc(N2CC[C@](C)(c3ccccc3)C2)cn2nc(C(=O)N3CC4CCN(c5cccc(C(=O)O)n5)CC43)nc12 (stereo partly shown) [Compound 629] | ***** (>2.5° C.=*****)
Cc1ncn(CC2C3COC2(c2nc4c(C)cc(OC[C@H](C)c5ccccc5)cn4n2)C3)n1 (stereo partly drawn) [Compound 487, 8-methyl-2-(5-((3-methyl-1H-1,2,4-triazol-1-yl)methyl)-2-oxabicyclo[2.1.1]hexan-1-yl)-6-((R)-2-phenylpropoxy)-[1,2,4]triazolo[1,5-a]pyridine] | *** (>1-1.5° C.=***)
Cc1cc(N2CC[C@](C)(c3ccccc3)C2)cn2nc(C(=O)N3CC[C@H]4[C@@H]3CC(=O)N4c3cccc(C(=O)O)n3)nc12 [Compound 704, 6-((3aS,6aS)-4-(8-methyl-6-((R)-3-methyl-3-phenylpyrrolidin-1-yl)-[1,2,4]triazolo[1,5-a]pyridine-2-carbonyl)-2-oxohexahydropyrrolo[3,2-b]pyrrol-1(2H)-yl)picolinic acid] | ***** (>2.5° C.=*****)
Cc1ncn(CC23COC(c4nc5c(C)cc(N6CC[C@](C)(c7ccccc7)C6)cn5n4)(C2)C3)n1 [Compound 447] | ***** (>2.5° C.=*****)
Cc1cc(N2CC[C@](C)(c3ccccc3)C2)cn2nc(C34CC(C(=O)NCC(=O)O)(CO3)C4)nc12 [Compound 444] | ***** (>2.5° C.=*****)
Cc1cc(N2CC[C@](C)(c3ccccc3)C2)cn2nc(C(=O)NC3CC[C@@]4(CCN(c5cccc(C(=O)O)n5)C4)C3)nc12 (mixture of isomers) [Compound 634, 6-[rac-(5R)-8-[[8-methyl-6-[rac-(3R)-3-methyl-3-phenyl-pyrrolidin-1-yl]-[1,2,4]triazolo[1,5-a]pyridine-2-carbonyl]amino]-2-azaspiro[4.4]nonan-2-yl]pyridine-2-carboxylic acid] | ***** (>2.5° C.=*****)
Cc1cc(N2CC[C@](C)(c3ccccc3)C2)cn2nc(C(=O)NC3CCC4CCC3N4c3cccc(C(=O)O)n3)nc12 (stereo partly shown) [Compound 620] | ***** (>2.5° C.=*****)
C[C@]1(c2ccccc2)CCN(c2cc(CO)c3nc(C45CC(CO4)C5c4ncn[nH]4)nn3c2)C1 (stereo partly shown) [Compound 479] | ***** (>2.5° C.=*****)
Cc1cc(N2CC[C@](C)(c3ccccc3)C2)cn2nc(C(=O)N3CC(CNc4cccc(C(=O)O)n4)C(C)(O)C3)nc12 (stereo partly drawn) [Compound 696, 6-(((4-hydroxy-4-methyl-1-(8-methyl-6-((R)-3-methyl-3-phenylpyrrolidin-1-yl)-[1,2,4]triazolo[1,5-a]pyridine-2-carbonyl)pyrrolidin-3-yl)methyl)amino)picolinic acid] | ***** (>2.5° C.=*****)
Cc1cc(N2CC[C@](C)(c3ccccc3)C2)cn2nc(C(=O)N3CCC(Nc4cccc(C(=O)O)n4)C4(COC4)C3)nc12 (stereo partly shown) [Compound 702] | ***** (>2.5° C.=*****)
Cc1nc(C2C3(CNS(=O)(=O)CC(C)(C)C(=O)O)COC2(c2nc4c(C)cc(N5CC[C@](C)(c6ccccc6)C5)cn4n2)C3)n[nH]1 (stereo partly drawn) [Compound 584, 2,2-dimethyl-3-(N-((5-(5-methyl-11H-1,2,4-triazol-3-yl)-1-(8-methyl-6-((R)-3-methyl-3-phenylpyrrolidin-1-yl)-[1,2,4]triazolo[1,5-a]pyridin-2-yl)-2-oxabicyclo[2.1.1]hexan-4-yl)methyl)sulfamoyl)propanoic acid] | ***** (>2.5° C.=*****)
Cc1cc(N2CC[C@](C)(c3ccccc3)C2)cn2nc(C(=O)NC3CCC34CC(OCC(=O)O)C4)nc12 (stereo partly drawn) [Compound 677, 2-[7-[[8-methyl-6-[(3R)-3-methyl-3-phenyl-pyrrolidin-1-yl]-[1,2,4]triazolo[1,5-a]pyridine-2-carbonyl]amino]spiro[3.3]heptan-2-yl]oxyacetic acid] | ***** (>2.5° C.=*****)
